Reference: ChEMBL document CHEMBL4840357, “Functionalized Dioxonaphthoimidazoliums: A Redox Cycling Chemotype with Potent Bactericidal Activities against Mycobacterium tuberculosis” (J Med Chem, 2021)
≈ marks a conversion by molar mass, not a printed value. Calls of active or inactive are those of the source. The calls are words filed in the database; no cut-off is given here.

Tests used:
[1] = test system: Mycobacterium tuberculosis variant bovis BCG; assay: Antimycobacterial activity against Mycobacterium bovis BCG ATCC 35734 incubated for 5 days by broth dilution method; assay type: functional; conditions: ATCC 35734, 120 h, time 5 day
[2] = test system: Mycobacterium tuberculosis variant bovis BCG; assay: Bactericidal activity against Mycobacterium bovis BCG ATCC 35734 incubated for 5 days by broth dilution method; assay type: functional; conditions: ATCC 35734, 120 h, time 5 day, read-out: MBC99.9
[3] = test system: Mycobacterium tuberculosis variant bovis BCG; assay: Ratio of MIC for antimycobacterial activity against Mycobacterium bovis BCG ATCC 35734 in absence of glycerol to MIC for antimycobacterial activity against Mycobacterium bovis BCG ATCC 35734 in presence of glycerol; assay type: functional
[4] = test system: Mycobacterium tuberculosis variant bovis BCG; assay: Induction of ROS generation in Mycobacterium bovis BCG ATCC 35734 at <= 1 times of MIC90 after 90 mins by cellrox-green reagent based assay; assay type: functional, organism-based
[5] = test system: Mycobacterium tuberculosis variant bovis BCG; assay: Induction of oxidative stress Mycobacterium bovis BCG-pfurA-RFP ATCC 35734 assessed as activation of pfurA at 0.5 to 2 times MIC90 after 24 hrs by fluorescence assay; assay type: functional, organism-based
[6] = test system: Mycobacterium tuberculosis variant bovis BCG; assay: Induction of ROS generation in Mycobacterium bovis BCG ATCC 35734 at 2 times of MIC90 after 90 mins by cellrox-green reagent based assay; assay type: functional, organism-based

Row | SMILES | MIC90 [1] [µM] | also measured
1 | CCC(C)[n+]1c2c(n(CC)c1C)C(=O)c1ccccc1C2=O (stereo not given) | 11 | –
2 | CCC(C)[n+]1c2c(n(CC(C)C)c1C)C(=O)c1ccccc1C2=O (stereo not given) | 3.6 | –
3 | CCCCn1c(C)nc2ccccc21 | > 50 | –
4 | CCCCCCCCCCn1c2c([n+](CCCCCCCCCC)c1C)C(=O)c1ccccc1C2=O | 3.1 | –
5 | CCCCCCCCCC[n+]1c2c(n(CC(C)C)c1C)C(=O)c1ccccc1C2=O | 0.36 | –
6 | CCCCCCn1c2c([n+](CCCCCC)c1CC)C(=O)c1ccccc1C2=O | 0.52 | –
7 | CC(C)/N=c1\cc2n(-c3ccc(Cl)cc3)c3ccccc3nc-2cc1Nc1ccc(Cl)cc1 [CLOFAZIMINE] | 0.4 (≈ 0.189 µg/mL) | MIC50 [1]: 0.2 µM (≈ 0.0947 µg/mL)
8 | CCCCCCn1c2c([n+](CCCCCC)c1C)C(=O)c1ccncc1C2=O | 5.4 | –
9 | CCCn1c2c([n+](CC)c1C)C(=O)c1ccccc1C2=O | 8.3 | –
10 | Cc1nc2c(n1C)C(=O)c1ccccc1C2=O | > 50 | –
11 | CCCC[n+]1c2c(n(CCC)c1C)C(=O)c1ccccc1C2=O | 2.3 | –
12 | CCCCCCCCCCn1c2c([n+](C(C)CC)c1C)C(=O)c1ccccc1C2=O (stereo not given) | 0.52 | –
13 | CC[n+]1c2c(n(C(C)C)c1C)C(=O)c1ccccc1C2=O | 15 | –
14 | CCn1c2c([n+](C3CC3)c1C)C(=O)c1ccccc1C2=O | 15 | –
15 | CCCCCCCCCCCCn1c(C)nc2ccccc21 | 10 (≈ 3 µg/mL) | –
16 | Cc1n(C)c2c([n+]1C1CC1)C(=O)c1ccccc1C2=O | 34 | –
17 | CCCCCCCCn1c2c([n+](CCCC)c1C)C(=O)c1cccnc1C2=O | 3.3 | –
18 | CCCCCCCCn1c2c([n+](C3CCC4(CCCCC4)CC3)c1C)C(=O)c1ccccc1C2=O | 0.2 | MIC50 [1]: 0.11 µM; MBC [2]: 0.2 µM
19 | CCC[n+]1c2c(n(C)c1C)C(=O)c1ccccc1C2=O | 18 | –
20 | CCCn1c2c([n+](C(C)CC)c1C)C(=O)c1ccccc1C2=O (stereo not given) | 5.5 | –
21 | CCCCCCCC[n+]1c2c(n(CC(C)C)c1C)C(=O)c1ccccc1C2=O | 0.26 | Ratio [3]: < 2; MIC50 [1]: 0.14 µM

Row | SMILES | MIC90 [1] [µM] | also measured
22 | CCCCCCCCn1c2c([n+](CCCCCC)c1C)C(=O)c1ccccc1C2=O | 0.34 | –
23 | CCCCn1c2c([n+](CCCC)c1C)C(=O)c1ccncc1C2=O | 21 | –
24 | Cc1nc2c(n1C(C)C)C(=O)c1ccccc1C2=O | > 50 | –
25 | CCCCn1c2c([n+](Cc3ccccc3)c1C)C(=O)c1ccccc1C2=O | 0.43 | –
26 | CC[n+]1c2c(n(C)c1C)C(=O)c1ccccc1C2=O | 22 | –
27 | Cc1n(CC(C)C)c2c([n+]1CC(C)C)C(=O)c1ccccc1C2=O | 1.9 | –
28 | NNC(=O)c1ccncc1 [ISONIAZID] | – | MIC50 [1]: 1.6 µM (≈ 0.219 µg/mL)
29 | CCC(C)[n+]1c2c(n(C)c1C)C(=O)c1ccccc1C2=O (stereo not given) | 13 | –
30 | CCCCn1c2c([n+](C3CC3)c1C)C(=O)c1ccccc1C2=O | 6.9 | –
31 | CCCCn1c2c([n+](CCCC)c1C)C(=O)c1cccnc1C2=O | 12 | –
32 | CCC[n+]1c2c(n(CC(C)C)c1C)C(=O)c1ccccc1C2=O | 3 | –
33 | CCCCCC[n+]1c2c(n(CCCC)c1C)C(=O)c1ccccc1C2=O | 0.43 | –
34 | CCCCn1c2c([n+](C3CCCCC3)c1C)C(=O)c1ccccc1C2=O | 1.4 | –
35 | CCCCCCn1c2c([n+](C(C)CC)c1C)C(=O)c1ccccc1C2=O (stereo not given) | 0.66 | –
36 | Cc1n(C2CC2)c2c([n+]1C1CC1)C(=O)c1ccccc1C2=O | 37 | –
37 | CCCC[n+]1c2c(n(CC(C)C)c1C)C(=O)c1ccccc1C2=O | 1.5 | –
38 | CCCCn1c2c([n+](CC3CCCCC3)c1C)C(=O)c1ccccc1C2=O | 0.35 | –
39 | CCCCCCCCCCCCn1c2c([n+](CCCCCCCCCCCC)c1C)C(=O)c1ccccc1C2=O | 4.8 | –
40 | CCCCCCn1c2c([n+](CCCCCC)c1C)C(=O)c1ccccc1C2=O | 0.22 | Ratio [3]: < 2; MIC50 [1]: 0.11 µM; MBC [2]: 0.64 µM
41 | CCCC[n+]1c2c(n(C(C)C)c1C)C(=O)c1ccccc1C2=O | 3.1 | –
42 | CCCCCCCC[n+]1c2c(n(CCCC)c1CC)C(=O)c1ccccc1C2=O | 0.49 | –

Row | SMILES | MIC90 [1] [µM] | also measured
43 | Cc1n(CC(C)C)c2c([n+]1C)C(=O)c1ccccc1C2=O | 6.3 | –
44 | CCC(C)[n+]1c2c(n(C(C)C)c1C)C(=O)c1ccccc1C2=O (stereo not given) | 11 | –
45 | CCCCCCCCn1c(C)nc2ccccc21 | 23 (≈ 5.62 µg/mL) | –
46 | Cc1n(C)c2c([n+]1C(C)C)C(=O)c1ccccc1C2=O | 6.2 | –
47 | CCCCn1c2c([n+](C(C)CC)c1C)C(=O)c1ccccc1C2=O (stereo not given) | 3.1 | –
48 | Cc1n(C(C)C)c2c([n+]1C1CC1)C(=O)c1ccccc1C2=O | 35 | –
49 | CCCCCCCCCn1c2c([n+](CCCCCCCCC)c1C)C(=O)c1ccncc1C2=O | 2.6 | –
50 | CCCCCCCCn1c2c([n+](CCCCCCCC)c1C)C(=O)c1cccnc1C2=O | 10 | –
51 | CCn1c(C)nc2c1C(=O)c1ccccc1C2=O | > 50 | –
52 | Cc1n(C)c2c([n+]1C)C(=O)c1ccccc1C2=O | 40 | –
53 | CCCCCCCCn1c2c([n+](CCCCCCCC)c1C)C(=O)c1ccncc1C2=O | 1.1 | –
54 | CCCCCCCCCCn1c(C)nc2c1C(=O)c1ccccc1C2=O | 47 (≈ 16.6 µg/mL) | –
55 | CCCn1c2c([n+](CCC)c1C)C(=O)c1ccccc1C2=O | 25 | –
56 | CCCCn1c2c([n+](C3CCCCCCC3)c1C)C(=O)c1ccccc1C2=O | 0.6 | –
57 | CCCn1c(C)nc2c1C(=O)c1ccccc1C2=O | > 50 | –
58 | CCCCn1c2c([n+](CC)c1C)C(=O)c1ccccc1C2=O | 7.7 | –
59 | CCCCCCn1c(C)nc2c1C(=O)c1ccccc1C2=O | 15 (≈ 4.45 µg/mL) | Activity [4]: inactive; Activity [5]: inactive; Activity [6]: Active
60 | CCCn1c2c([n+](C(C)C)c1C)C(=O)c1ccccc1C2=O | 21 | –
61 | CCCCCn1c(C)nc2c1C(=O)c1ccccc1C2=O | 39 (≈ 11 µg/mL) | –
62 | CCn1c2c([n+](CC)c1C)C(=O)c1ccccc1C2=O | 17 | –
63 | Cc1n(C(C)C)c2c([n+]1C(C)C)C(=O)c1ccccc1C2=O | 25 | –

Row | SMILES | MIC90 [1] [µM] | also measured
64 | CCCCn1c2c([n+](CCCN3CCOCC3)c1C)C(=O)c1ccccc1C2=O | 13 | –
65 | Cc1n(CC(C)C)c2c([n+]1C1CC1)C(=O)c1ccccc1C2=O | 6 | –
66 | CCCCn1c(C)nc2c1C(=O)c1ccccc1C2=O | > 50 | –
67 | CCCCCCn1c2c([n+](CCCCCC)c1C)C(=O)c1cccnc1C2=O | 2.3 | –
68 | CCC(C)[n+]1c2c(n(C3CC3)c1C)C(=O)c1ccccc1C2=O (stereo not given) | 13 | –
69 | CCCCCCCCn1c(C)[n+](CCCC)c2ccccc21 | > 50 | –
70 | CCCn1c2c([n+](C3CC3)c1C)C(=O)c1ccccc1C2=O | 17 | –
71 | CCCCCCCCCCn1c(C)nc2ccccc21 | 15 (≈ 4.09 µg/mL) | –
72 | CCCCCCn1c2c([n+](C3CCC4(CCCCC4)CC3)c1C)C(=O)c1ccccc1C2=O | 0.15 | MBC [2]: 0.2 µM
73 | CCCCn1c2c([n+](CCC3CCCCC3)c1C)C(=O)c1ccccc1C2=O | 0.37 | –
74 | CCCCCCCCn1c(C)nc2c1C(=O)c1ccccc1C2=O | 11 (≈ 3.57 µg/mL) | Activity [4]: inactive; Activity [5]: inactive; Activity [6]: Active
75 | Cc1n(CC(C)C)c2c([n+]1C(C)C)C(=O)c1ccccc1C2=O | 5.6 | –
76 | CCCCCCCCCCCC[n+]1c2c(n(CC(C)C)c1C)C(=O)c1ccccc1C2=O | 0.54 | –
77 | CCCCCCCCn1c2c([n+](CCCCCCCC)c1C)C(=O)c1ccccc1C2=O | 0.88 | –
78 | CCCCCC[n+]1c2c(n(CC(C)C)c1C)C(=O)c1ccccc1C2=O | 0.3 | Ratio [3]: < 2; MIC50 [1]: 0.18 µM
79 | CCCCn1c2c([n+](CCCC)c1C)C(=O)c1ccccc1C2=O | 1.9 | –
80 | CCCCCCCCn1c2c([n+](CCCCC)c1C)C(=O)c1ccccc1C2=O | 0.33 | –
81 | CCCC[n+]1c2c(n(C)c1C)C(=O)c1ccccc1C2=O | 6.7 | –
82 | CCCCCCCCn1c2c([n+](C(C)CC)c1C)C(=O)c1ccccc1C2=O (stereo not given) | 0.46 | –
83 | CC[n+]1c2c(n(CC(C)C)c1C)C(=O)c1ccccc1C2=O | 4.9 | –
